Data on 89 molecules can be found in a melting point compilation (Tetko et al.; mined from patent text by program, amines drawn as free bases though some values may be those of a salt).

Broadly, the melting point is the temperature, or range, at which the solid turns liquid. `Cc1ncnc(-c2cc(O)c(Cl)cc2F)c1C` registered a melting point of 176 to 178 °C. As for `CCCCCNC(=O)NCCCCCOc1cccc2sc(NC(C)=O)nc12`, the melting point lay in the range of 61.6 to 61.8 °C. The value for `Cn1c(-c2ccc(Br)cc2)c(OCCOc2ccc(C=C3SC(=O)NC3=O)cc2)c(=O)c2ccccc21` was 151 to 154 °C. The value for `Fc1ccc(F)c(CC2CCN(C3CC=C(c4ccc5c(c4)OCO5)CC3)CC2)c1` (centres undefined) was 87 to 88 °C; that for `O=C(c1ccccc1)N1Cc2c(-c3noc(C4CC4)n3)ncn2-c2cccc(F)c21` was 234 to 236 °C. The figure for `COc1ccc(OC2COc3ccc(OCc4ccccc4)cc3C2=O)cc1` (centres undefined) is 98 to 100 °C; for `CCOC(=O)c1cn(CC)nc1O` it is 109 to 110 °C.

`CCOC(=O)c1cc2n(c1)CN(CCC#N)c1ccccc1-2` gave a melting point of 102 to 104 °C.

In turn, `CN(C)c1nn(-c2cc(F)c(C#N)cc2F)c(=O)n1N` came in with a melting point of 154 to 155 °C.

`NS(=O)(=O)OCC1COc2cc(Cl)c(Cl)cc2O1` (centres undefined): the melting point was in the range of 109 to 111 °C. The figure for `O=C(Nc1ccncc1)c1cccc(-c2ccc3c(c2)C(Oc2ccc(Cl)cc2Cl)CC3)c1` (centres undefined) is 226 to 227 °C; for `CN(CCO)CC1(SSC2(CN(C)CCO)CCCCC2)CCCCC1` it is 65 to 70 °C. The value for `C=CCC(C(=O)OC)(C(=O)OC)C(Cc1ccccc1N)c1ccc(OC)cc1` (centres undefined) was 117 to 118 °C; that for `COC(=O)c1cccc(OCc2ccccc2)c1` was 74 to 77 °C. The figure for `COc1cc(NC(C)=O)c(Cl)cc1C(=O)NN1CCN2CCCCC2C1` (centres undefined) is 200 to 201 °C. For `Cc1oc(-c2cccs2)nc1COc1ccc(Cn2cc(CCC(=O)O)c(-c3ccccc3)n2)cc1`, the melting point lay in the range of 159 to 160 °C. The value for `CCc1cccc(CC)c1NC(=O)Nc1sc2cc(OC)c(OC)cc2c1-c1ccccc1Cl` was 229 to 231 °C. The figure for `CCOCCOc1cc(C(C)C)c(NC(=O)CN2CCN(CCSc3nc4ccccc4o3)CC2)c(C(C)C)c1` is 92 to 95 °C; for `COc1ccc(/C=C(\C#N)c2ccc(Cl)cc2)cc1OC1CCCC1` it is 129 to 137 °C; for `Cc1c(C)c2c(c(C)c1NC=O)CC(C)(CBr)O2` (centres undefined) it is 157 to 158 °C. Molecule `CCCCCCCCCCCCCCC(OC)C(=O)OC` (centres undefined) displayed a melting point of 28.6 to 30.6 °C. The figure for `COC(=O)c1cc(NC(=O)Nc2ccc([N+](=O)[O-])cc2)cc(C(=O)OC)c1` is 193 to 195 °C. The value for `COC[C@@H](NS(=O)(=O)c1ccc2c(Cl)cnc(Cl)c2c1)C(=O)OC(C)(C)C` was 135 to 137 °C; that for `CC(C)CCSc1cc(C(=O)O)cc(N)c1Oc1ccccc1` was 132 to 133 °C; that for `CC(C)(CO)Cc1ccc(-c2ccc(CC(C)(C)CO)cc2)cc1` was 168 to 170 °C. The value for `Nc1cccc(CN/C=C2\C(=O)NC(=O)c3ccc(Br)cc32)c1` was 214 to 215 °C; that for `O=[N+]([O-])c1ccc(-n2nc3c(c2O)-c2ccccc2CC3)nc1` was 226 to 227 °C; that for `O=[N+]([O-])c1ccc2sc(CCl)cc2c1` was 110 to 112 °C. With `CCc1nc2c(N)nc(C)c(C)c2n1NC1CCCCC1`, the melting point fell in the range of 190 to 192 °C.

On to `CN(C)C1=NC(=O)C(Cc2cccc(-c3ccc(O)c(C45CC6CC(CC(C6)C4)C5)c3)c2)S1` (centres undefined), for which the melting point lay within 243 to 246 °C.

Molecule `COc1ccc(CCc2nc3ccccc3c(=O)n2CCN(C)C)cc1` returned a melting point of 73.5 to 74.5 °C. Molecule `CC1(C)C(=O)C(c2ccc(F)c(F)c2)=C1c1ccc(S(C)(=O)=O)cc1` registered a melting point of 118 °C.

The molecule `Cn1cc(CCN2C(=O)c3ccccc3C2=O)c2cc(CC(N)=O)ccc21` had a melting point of 200 to 202 °C.

Take `Cc1ccc(Cl)c2[nH]c(=O)oc(=O)c12`: the melting point was 248 to 250 °C.

On to `O=C(O)c1cccc(Cc2c(-c3ccc(OC(F)F)c(OC4CC4)c3)[nH]c3cn[nH]c(=O)c23)c1`, for which the melting point lay within 155 to 163 °C.

Take `NC(=CC(=O)c1ccncc1)C1CC1`: the melting point lay in the range of 124 to 125 °C. The molecule `C#CCSC(=S)N(C)C` displayed a melting point of 57 to 59 °C. The figure for `Cc1nc(-c2cc(C(C)(C)C)c(O)c(C(C)(C)C)c2)no1` is 126 to 127 °C; for `O=C(OC1CCCCC1)c1ccc(Nc2nc(Nc3ccc(C(=O)OC4CCCCC4)cc3)nc(Nc3ccc(C(=O)OC4CCCCC4)cc3)n2)cc1` it is 171 to 173 °C.

Take `Cc1c(N2CCC(N)C2)c(F)cc2c(=O)c(C(=O)O)cn(C3CC3)c12` (centres undefined): the melting point lay within 187 to 190 °C. The value for `CCCn1c(=O)c2[nH]c(/C=C/c3ccco3)nc2n(CCC)c1=O` was 258 to 259 °C; that for `COC(=O)CCSCc1ccc2oc(-c3ccc4ccc(Cl)cc4n3)cc2c1` was 96 to 103 °C; that for `Cc1oc(-c2ccccc2)nc1CCc1ccc(C=CC=O)cc1` was 99 to 100 °C.

The molecule `COC(=O)c1cccc(C=NO)c1` came in with a melting point of 107 to 108 °C. The figure for `CC(=O)Nc1ccc(C=CC2CSC(=O)NN2)cc1` (centres undefined) is 235 to 240 °C; for `COc1nc(Nc2ccc(C)cc2[N+](=O)[O-])nc(OC)n1` it is 189 to 191 °C; for `Cc1oc(-c2ccccc2)nc1CCOc1ccc(CCCBr)cc1` it is 78 to 79 °C.

Molecule `CCCCC1(N(C)C)CCC(c2[nH]c3ccccc3c2CCC)CC1` (centres undefined) displayed a melting point of 127 to 130 °C. The value for `CCCc1ccc(OCCN(C(=O)n2cccn2)c2ncnc3ccccc23)c(C)c1` was 114 to 115 °C; that for `COc1ccc(C2CC(c3cccc(OC)c3)=NN2c2ccc(C(=O)O)cc2)cc1` (centres undefined) was 142 °C; that for `Clc1ccc(-c2nc3cccnc3n2Cc2ncc[nH]2)cc1` was 184 to 185 °C. The figure for `CCCN(C1=C(O)CC(C2CCCC2)(C2CCCC2)OC1=O)c1cccc(NS(=O)(=O)c2ccccn2)c1` is 105 to 107 °C. Turning to `COC(=O)c1cccc(CN2C(=O)C(CCOc3ccc(CCNC(=O)OC(C)(C)C)cc3)Oc3ccccc32)c1` (centres undefined), the melting point is 112 to 113 °C. The figure for `O=C1CC(N2Cc3ccc(F)cc3NC2=O)C(=O)N1` (centres undefined) is 283 to 285 °C.

In the case of `CC(=O)NCc1cc(CCC(=O)O)no1`, the melting point is 134 °C. The value for `CC(C)(C)OC(=O)N1CCc2c(n(CCOc3ccccc3)c3cc(Cl)c(Cl)cc23)CC1` was 136 to 138 °C; that for `Cc1ncc(CN2CCCNC2=C[N+](=O)[O-])s1` was 204 to 207 °C.

In the case of `CCc1cc2cc(O)ccc2c(Oc2ccc(/C=C/C(=O)O)cc2)c1-c1ccccc1`, the melting point was 188 to 190 °C.

`Nc1ncnc2nsnc12`: the melting point was in the range of 247 to 249 °C. `ON=C(c1ccccc1OCc1ccc(Cl)cc1)n1ccnc1` registered a melting point of 196 to 197 °C. The value for `CCOC(=O)c1cn(-c2ccc(F)cc2F)c2nc(N3CCN(C(C)=O)CC3)c(F)cc2c1=O` was 219 to 220 °C.

For `CCCOc1ccc(S(=O)(=O)N2CCN(C(C)=O)CC2)cc1-c1nc2cc(Cl)c([N+](=O)[O-])cc2c(=O)[nH]1`, the melting point fell in the range of 215 to 217 °C.

In turn, `O=[N+]([O-])c1cccc2c1C[C@H]1CSC(=S)N1C2` had a melting point of 203 °C. With `O=c1[nH]c(=O)n(C2CC(F)C(COC(c3ccccc3)(c3ccccc3)c3ccccc3)O2)cc1C#CI` (centres undefined), the melting point worked out at 73 °C. In turn, `COC(=O)C[C@@H](SCc1ccccc1)C(N)=O` had a melting point of 146 to 149 °C. The value for `CCN(C(=O)OC)C1=CC(=O)CC1` was 68 to 68.5 °C. The figure for `CCCCCC/C=C\CCCCCCCC(=O)N[C@H]1CCCNC(=O)C1` is 67 to 68 °C; for `CCOC(=O)c1c(Cn2cncn2)nc2sc3cnccc3c2c1-c1ccc(OC)c(OC)c1` it is 172 to 174 °C.

On to `CCOc1cccc(C(CO)n2nc(C(=O)O)c3c2-c2ccc(OCc4cncnc4)cc2CC3)c1` (centres undefined), for which the melting point was in the range of 210 to 212 °C. The value for `NC(=O)c1[nH]c2ccc(Cl)cc2c1S(=O)(=O)c1ccccc1` was 253 to 254 °C; that for `N#Cc1cnc2sc(-c3ccccc3)cc2c1-c1ccc2[nH]ccc2c1` was greater than 245 °C. The value for `ON=Cc1ccc(-c2ccc(O)cc2)cc1` was 207 to 210 °C; that for `O=C1c2ccccc2C(c2c(O)c3ccccc3oc2=O)N1c1ccccc1` (centres undefined) was 335 to 337 °C; that for `O=C(NC1CCN(CCCOc2ccc3c4c(c(=O)oc3c2)CCCC4)CC1)c1ccccc1O` was 209 to 211 °C. `Nc1nn(Cc2ccccc2)c2nc(N3CCOCC3)cc(-c3ccccc3)c12` returned a melting point of 147 to 150 °C.

The molecule `CC(C)(C)OC(=O)Nc1cccc(C2(O)COC2)c1` returned a melting point of 121 to 123 °C. In turn, `O=C(NCCc1ccc(O)c(O)c1)C12CC3CC(CC(C3)C1)C2` registered a melting point of 198 to 200 °C. The figure for `CC(C)(C)c1cc(C(=O)NCCc2cccc([N+](=O)[O-])c2)cc(C(C)(C)C)c1O` is 195 to 197 °C. The value for `OCc1nc2n(c1CO)-c1ccc(Cl)cc1C(c1ccccc1F)=NC2` was 222 °C. The value for `O=Cc1csc(NC(=O)OCC(Cl)(Cl)Cl)n1` was 188 to 190 °C; that for `COc1cc(OC)nc(Oc2c(Cl)cc(Cl)cc2C=O)n1` was 132 to 133 °C; that for `Cc1c(C=NO)c2cc(Br)ccc2n1-c1ccc(O)cc1` was 209 to 211 °C.

`CNC(=O)c1cccnc1C` registered a melting point of 69 to 72 °C. The value for `COC(=O)CCc1ccc(-n2c(C)cn(-c3ccc(C#N)cc3)c2=O)cc1` was 168 to 170 °C; that for `CCN(C)c1nc2cccc(C(=O)OC)c2n1Cc1ccc(-c2ccccc2C#N)cc1` was 66 to 69 °C. The value for `Cc1csc(N2CCN(CC(O)c3ccc(O)c(C(N)=O)c3)CC2)n1` (centres undefined) was 182 °C; that for `Cc1ccsc1C(O)CCN(C)C` (centres undefined) was 41.5 to 42.5 °C; that for `NC(=O)c1ncc(Cl)cc1F` was 162 to 164 °C. The molecule `O=c1c2cc(F)ccc2nc(CNc2ncccn2)n1-c1ccccc1Cl` displayed a melting point of 182 to 185 °C.
